Measured values reported in US6872562B2, “Herbicide resistant dinitrogen fixing bacteria and method of use” (priority 2001, dated 2005).

Legend:
[1] = test system: glyphosate resistant soybean cultivar DK5961RR inoculated with B. japonicum (USDA 110); test: Seed-imbibed glyphosate: nodulation, greenhouse experiment; format: in vivo
Method: Pots 15-cm in diameter, with a total volume of 1.3 L were filled with a peat based potting mix that was saturated with a nitrogen-free nutrient solution. Six seeds from a particular glyphosate-concentration seed soak were planted in each pot and 1 ml of B. japonicum (USDA 110) containing approximately 4.24×10^6 cells was applied evenly across the surface and washed into the potting mix with 250 ml of minus N nutrients. Plants were thinned to one per pot after emergence. Day and night temperatures were approximately 30 and 24 C, respectively, and natural illumination was supplemented with 1000 W metal-halide lamps for a day length of 16 hours. […] Root nodules were scanned and images were used to determine nodule number and size as influenced by glyphosate treatment. The […] was repeated in a controlled environmental growth chamber with six replications. Growth chamber temperature was a constant 25 C and light and dark periods were 16 and 8 hours, respectively. Plants were harvested at 15 days after planting and sectioned as previously described (Example 1).

[2] = test system: GR soybean cultivars A4501RR, A5901RR, DK5961RR, H5164RR, TV5866RR; test: Greenhouse Example 2: sensitivity of five GR soybean cultivars to glyphosate; format: in vivo, soybean (Glycine max); conditions: 40 DAE
Excerpt: The other plants were not treated and served as controls. […] The experiment was a completely random design with six replications.

cultivar TV5866RR = test: Growth cabinet: nitrogenase activity (relative ARA) under soil-water deficits; format: in vivo, soybean (Glycine max)
Method: Plants were established in flow-through pots (Purcell et al., 1997) for nondestructive measurement of acetylene-reduction activity (ARA) as an indicator of relative nitrogenase activity. Pots were constructed of 10-cm-diameter, 40-cm-long polyvinyl chloride pipe, sealed at the bottom and top with end caps. Fittings were inserted into the bottom for drainage and introduction of air samples during ARA measurements, and into the top for air exhaust and sampling. Pot tare weights were recorded prior to adding potting mixture. Potting media and nutrients were the same as described in Examples 1-3. […] After allowing excess water to drain for 12 h, pot capacity weights were recorded. […]
ARA was measured beginning 28 DAE by introducing a 9:1 air to acetylene mixture at 0.5 L min^−1 into the bottom of the pots that were sealed around the plant root system. […] Ethylene concentration in the gas samples was quantified by gas chromatography using a flame ionization detector and a Porapak N column (de Silva et al., 1996). […] Ethylene concentrations were expressed as μmol C2H4 plant^−1h^−1, and means within an experiment and sample date were compared using standard errors. […]
Soil-water data were converted from pot capacity weight to fraction of the transpirable soil water (FTSW) (de Silva et al., 1996). […] Soil weight at zero transpirable water was determined to be 0.24 of the soil weight at pot capacity. […]

[3] = test system: selected B. japonicum cultures (from USDA 110); test: Growth in Tulley's media with 5 mM glyphosate, colonies selected in Example 6 (Example 7); format: cell-based, Bradyrhizobium japonicum
Method: Duplicate cultures were evaluated from each of the original colony selections. […] The cultures were allowed to grow for 14 days, and then the OD of each culture was measured.

O=C(O)CNCP(=O)(O)O [glyphosate, N-(phosphonomethyl)glycine]
Reduction in nodule number compared to the control ([1]; 3.1 mM glyphosate seed treatment, 10 DAP): ~30% | Nodule number ([1]; glyphosate concentrations greater than 3.1 mM): increased to values similar to that of plants from the control treatment | Average diameter of individual nodules ([1]; increasing glyphosate concentrations, 17 DAP): tended to decrease | Shoot mass effect [2]: decreased | Biomass Nodule ([2]; A4501RR, E + L treatment): 0.47 g plant^−1 | Biomass Root ([2]; A4501RR, E + L treatment): 1.22 g plant^−1 | Biomass Shoot ([2]; A4501RR, E + L treatment): 4.55 g plant^−1 | Nitrogen Root ([2]; A4501RR, E + L treatment): 45 mg plant^−1 | Nitrogen Shoot ([2]; A4501RR, E + L treatment): 185 mg plant^−1 | Nodule biomass effect ([2]; A5901RR): increased | Biomass Nodule ([2]; A5901RR, E + L treatment): 0.54 g plant^−1 | Biomass Root ([2]; A5901RR, E + L treatment): 0.93 g plant^−1 | Biomass Shoot ([2]; A5901RR, E + L treatment): 4.03 g plant^−1 | Nitrogen Root ([2]; A5901RR, E + L treatment): 45 mg plant^−1 | Nitrogen Shoot ([2]; A5901RR, E + L treatment): 163 mg plant^−1 | Nodule mass effect ([2]; DK5961RR): decreased | Biomass Nodule ([2]; DK5961RR, E + L treatment): 0.40 g plant^−1 | Biomass Root ([2]; DK5961RR, E + L treatment): 0.74 g plant^−1 | Biomass Shoot ([2]; DK5961RR, E + L treatment): 3.41 g plant^−1 | Nitrogen Root ([2]; DK5961RR, E + L treatment): 31 mg plant^−1 | Nitrogen Shoot ([2]; DK5961RR, E + L treatment): 142 mg plant^−1 | Biomass Nodule ([2]; H5164RR, E + L treatment): 0.47 g plant^−1 | Biomass Root ([2]; H5164RR, E + L treatment): 1.18 g plant^−1 | Biomass Shoot ([2]; H5164RR, E + L treatment): 4.36 g plant^−1 | Nitrogen Root ([2]; H5164RR, E + L treatment): 46 mg plant^−1 | Nitrogen Shoot ([2]; H5164RR, E + L treatment): 170 mg plant^−1 | Biomass Root ([2]; TV5866RR, E + L treatment): 0.71 g plant^−1 | Biomass Shoot ([2]; TV5866RR, E + L treatment): 3.07 g plant^−1 | Nitrogen Root ([2]; TV5866RR, E + L treatment): 35 mg plant^−1 | Nitrogen Shoot ([2]; TV5866RR, E + L treatment): 131 mg plant^−1 | Biomass Nodule ([2]; TV5866RR, E + L: 1.68 kg ai ha^−1 at 5, 10, 18, 25, and 32 DAE): 0.34 g plant^−1 | Measured biomass or nitrogen parameters ([2]; cultivars A5901RR or H5164RR): None of the measured biomass or nitrogen parameters were decreased | Sensitivity of ARA to water deficits vs untreated plants (cultivar TV5866RR; in vivo): more sensitive | Nitrogenase activity, % of the well-watered control (cultivar TV5866RR; water-deficit plants at FTSW of 0.21, 1.68 kg ha^−1 on 5, 12, and 19 DAE): 71% | Growth, % of wild type USDA 110 in the absence of glyphosate ([3]; 45 selected colonies averaged, liquid culture, 14 days): 27% | OD600 ([3]; Selected cultures, averaged over all strains, after 14 days): 0.36 b^
